From BigSolDB 2.1

COC(=O)[C@H]1[C@H]2C[C@@H]3c4[nH]c5cc(OC)ccc5c4CCN3C[C@H]2C[C@@H](OC(=O)c2cc(OC)c(OC)c(OC)c2)[C@@H]1OC
solubility (mole fraction) (in PEG-400, 298.15 K): 0.00144
solubility (mole fraction) (in PEG-400, 308.15 K): 0.00206
solubility (mole fraction) (in PEG-400, 318.15 K): 0.00281
solubility (mole fraction) (in PEG-400, 328.15 K): 0.00373
solubility (mole fraction) (in PEG-400, 338.15 K): 0.0047
solubility (mole fraction) (in ethanol, 298.15 K): 9.16e-06
solubility (mole fraction) (in ethanol, 308.15 K): 1.25e-05
solubility (mole fraction) (in ethanol, 318.15 K): 1.59e-05
solubility (mole fraction) (in ethanol, 328.15 K): 2.07e-05
solubility (mole fraction) (in ethanol, 338.15 K): 2.53e-05
solubility (mole fraction) (in ethyl acetate, 298.15 K): 0.000521
solubility (mole fraction) (in ethyl acetate, 308.15 K): 0.000608
solubility (mole fraction) (in ethyl acetate, 318.15 K): 0.000723
solubility (mole fraction) (in ethyl acetate, 328.15 K): 0.000868
solubility (mole fraction) (in ethyl acetate, 338.15 K): 0.00104
solubility (mole fraction) (in ethylene glycol, 298.15 K): 5.3e-05
solubility (mole fraction) (in ethylene glycol, 308.15 K): 7.04e-05
solubility (mole fraction) (in ethylene glycol, 318.15 K): 9.28e-05
solubility (mole fraction) (in ethylene glycol, 328.15 K): 0.000114
solubility (mole fraction) (in ethylene glycol, 338.15 K): 0.000143
solubility (mole fraction) (in isopropanol, 298.15 K): 2.43e-05
solubility (mole fraction) (in isopropanol, 308.15 K): 3.16e-05
solubility (mole fraction) (in isopropanol, 318.15 K): 4.02e-05
solubility (mole fraction) (in isopropanol, 328.15 K): 4.95e-05
solubility (mole fraction) (in isopropanol, 338.15 K): 6.07e-05
solubility (mole fraction) (in propylene glycol, 298.15 K): 2.88e-05
solubility (mole fraction) (in propylene glycol, 308.15 K): 3.38e-05
solubility (mole fraction) (in propylene glycol, 318.15 K): 4e-05
solubility (mole fraction) (in propylene glycol, 328.15 K): 4.63e-05
solubility (mole fraction) (in propylene glycol, 338.15 K): 5.5e-05
solubility (mole fraction) (in transcutol, 298.15 K): 0.000769
solubility (mole fraction) (in transcutol, 308.15 K): 0.000906
solubility (mole fraction) (in transcutol, 318.15 K): 0.0011
solubility (mole fraction) (in transcutol, 328.15 K): 0.00137
solubility (mole fraction) (in transcutol, 338.15 K): 0.00161
solubility (mole fraction) (in water, 298.15 K): 9.71e-07
solubility (mole fraction) (in water, 308.15 K): 1.25e-06
solubility (mole fraction) (in water, 318.15 K): 1.57e-06
solubility (mole fraction) (in water, 328.15 K): 1.9e-06
solubility (mole fraction) (in water, 338.15 K): 2.25e-06
